Data from paper PMC11243693, “Synthesis and Biological Evaluation of New Compounds with Nitroimidazole Moiety” (Molecules, 2024).
Values after ≈ are worked out from the molar mass of the structure shown.

System: Candida tropicalis ATCC 1369
Test: Broth microdilution, C. tropicalis ATCC 1369
Type: cell-based
Conditions: Ct 1369
Summary of the method: (§1)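 EUCAST broth microdilution with twofold dilutions from a 1000 µg/mL starting solution, in Mueller-Hinton broth for B. cereus or Mueller-Hinton plus 2% glucose for Candida. Inoculum was a 10-fold diluted 0.5 McFarland suspension. After 18 ± 2 h at 35 ± 2 °C, MIC was read by A570; MBC/MFC by subculture showing 99.9% kill.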

Structure (SMILES) | MFC | MIC
Cn1cc([N+](=O)[O-])nc1C(=O)NNC(=S)Nc1ccccc1Cl [Compound 3] | 500 µg/mL (≈ 1410 µM) | 250 µg/mL (≈ 705 µM)
Cn1cc([N+](=O)[O-])nc1C(=O)NNC(=S)Nc1cccc(Cl)c1 [Compound 4] | 500 µg/mL (≈ 1410 µM) | 250 µg/mL (≈ 705 µM)

Same assay, conditions: Ct 1369; <4 fungicidal, ≥4 fungistatic

Structure (SMILES) | MFC/MIC Ratio
Cn1cc([N+](=O)[O-])nc1C(=O)NNC(=S)Nc1ccccc1Cl [Compound 3] | 2
Cn1cc([N+](=O)[O-])nc1C(=O)NNC(=S)Nc1cccc(Cl)c1 [Compound 4] | 2

System: Staphylococcus epidermidis ATCC 12228
Test: Broth microdilution, S. epidermidis ATCC 12228
Type: cell-based
Conditions: Se 12228
Summary of the method: (§2)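 Compounds are diluted twofold, starting at 1000 µg/mL, in Mueller-Hinton medium, supplemented with 2% glucose for the yeast strains. Wells then receive a tenfold-diluted 0.5 McFarland inoculum and incubate 18 ± 2 h at 35 ± 2 °C. Absorbance at 570 nm gives the MIC.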

Structure (SMILES) | MBC | MIC
Cn1cc([N+](=O)[O-])nc1C(=O)NNC(=S)Nc1ccccc1Cl [Compound 3] | 500 µg/mL (≈ 1410 µM) | 250 µg/mL (≈ 705 µM)
Cn1cc([N+](=O)[O-])nc1C(=O)NNC(=S)Nc1cccc(Cl)c1 [Compound 4] | 125 µg/mL (≈ 352 µM) | 125 µg/mL (≈ 352 µM)

Same assay, conditions: Se 12228; <4 bactericidal, ≥4 bacteriostatic

Structure (SMILES) | MBC/MIC Ratio
Cn1cc([N+](=O)[O-])nc1C(=O)NNC(=S)Nc1ccccc1Cl [Compound 3] | 2
Cn1cc([N+](=O)[O-])nc1C(=O)NNC(=S)Nc1cccc(Cl)c1 [Compound 4] | 1

System: Staphylococcus aureus ATCC 25923
Test: Broth microdilution, S. aureus ATCC 25923
Type: cell-based
Conditions: Sa 25923
Summary of the method: as §2

Structure (SMILES) | MBC | MIC
Cn1cc([N+](=O)[O-])nc1C(=O)NNC(=S)Nc1ccccc1Cl [Compound 3] | >1000 µg/mL | 250 µg/mL (≈ 705 µM)
Cn1cc([N+](=O)[O-])nc1C(=O)NNC(=S)Nc1cccc(Cl)c1 [Compound 4] | >1000 µg/mL | 62.5 µg/mL (≈ 176 µM)

System: Candida krusei ATCC 14243
Test: Broth microdilution, C. krusei ATCC 14243
Type: cell-based
Conditions: Ck 14243
Summary of the method: as §1

Structure (SMILES) | MIC
Cn1cc([N+](=O)[O-])nc1C(=O)NNC(=S)Nc1ccccc1Cl [Compound 3] | >1000 µg/mL
Cn1cc([N+](=O)[O-])nc1C(=O)NNC(=S)Nc1cccc(Cl)c1 [Compound 4] | >1000 µg/mL

System: Candida parapsilosis ATCC 22019
Test: Broth microdilution, C. parapsilosis ATCC 22019
Type: cell-based
Conditions: Cp 22019
Summary of the method: as §1

Structure (SMILES) | MFC | MIC
Cn1cc([N+](=O)[O-])nc1C(=O)NNC(=S)Nc1ccccc1Cl [Compound 3] | >1000 µg/mL | 250 µg/mL (≈ 705 µM)
Cn1cc([N+](=O)[O-])nc1C(=O)NNC(=S)Nc1cccc(Cl)c1 [Compound 4] | >1000 µg/mL | 62.5 µg/mL (≈ 176 µM)

System: Candida spp.
Test: Broth microdilution, Candida spp.
Type: cell-based
Conditions: range over both strains and the listed compounds
Experimental: The antibacterial activity of the obtained thiosemicarbazides and hydrazide–hydrazones was determined by evaluating their ability to inhibit microbial growth in vitro using the broth microdilution method, according to the guidelines of the European Committee on Antimicrobial Susceptibility Testing (EUCAST). The method involved the preparation of microbial suspensions with a standardized density of 0.5 on the McFarland scale (equivalent to 1.5 × 10^8 colony-forming units/mL for bacteria and […] for fungi). A solution of the test substances was then prepared (initial concentration 1000 µg/mL, diluted in sterile Mueller-Hinton broth for bacteria or Mueller-Hinton with 2% glucose for fungi). The test was carried out in 96-well polystyrene flat-bottom plates (Medlab, Poland) with 100 µL of appropriate sterile microbiological medium in each well. The first wells were filled with 200 µL of the test substance, diluted to the initial concentration, and then double-decreasing dilutions were made under aseptic conditions using an automatic pipette. The final step was the addition of a 10-fold diluted microbial suspension of 2 µL. At the same time, the following controls were included: (a) medium control (100 µL of sterile medium without microorganisms added), (b) microbial viability control, (c) test substance control (dilutions without added micro-organisms), (d) positive control of the drug used in the clinic. The plates thus prepared were incubated for 18 ± 2 h at 35 ± 2 °C under conditions optimal for the growth of the test microorganisms. After incubation, the spectrophotometric absorbance at 570 nm in each well of the plate was read. The aim of this part of the study was to determine two parameters: the minimum inhibitory concentration (MIC) and the minimum bactericidal or fungicidal concentration (MBC/MFC) of the test compound. […] The MBC value was determined by adding 5 µL of the contents of each well of the plate to solid sterile MHA or MHA + 2%glc medium for bacteria and fungi, respectively. The area on the plate where 99.9% inhibition of microbial growth was observed indicated the lethal concentration. In addition, the quotient MBC(MFC)/MIC could be determined to assess the nature of the activity of the test substance. If MBC(MFC)/MIC was <4, the test substance was bactericidal/fungicidal, whereas if MBC(MFC)/MIC was ≥4, it was bacteriostatic/fungistatic. Amoxicillin (Glentham Life Sciences, USA) and nystatin (Glentham Life Sciences, USA) were used as the controls for this assay.
The test was performed either on bacteria, comprising: Gram-positive (Staphylococcus aureus ATCC 25923, Staphylococcus aureus ATCC 6538, Staphylococcus aureus ATCC 43300 methicillin-resistant MRSA, Staphylococcus epidermidis ATCC 12228, Micrococcus luteus ATCC 10240, Bacillus subtilis ATCC 6633, Bacillus cereus ATCC 10876) and Gram-negative (Escherichia coli ATCC 25922, Pseudomonas aeruginosa ATCC 27853, Proteus mirabilis ATCC 12453, Klebsiella pneumoniae ATCC 13883) or yeast (Candida parapsilosis ATCC 22019, Candida glabrata ATCC 90030, Candida krusei ATCC 14243, Candida glabrata ATCC 15126, Candida tropicalis ATCC 1369, Candida auris CDC B11903, Candida lusitaniae ATCC 3449) reference strains from the American Type Culture Collection (ATCC) or the Centers for Disease Control and Prevention (CDC).

Structure (SMILES) | MBC (range, C. parapsilosis ATCC 22019 and C. tropicalis ATCC 1369) | MIC (range, C. parapsilosis ATCC 22019 and C. tropicalis ATCC 1369)
Cn1cc([N+](=O)[O-])nc1C(=O)NNC(=S)Nc1ccccc1Cl [Compound 3] | 500 to 1000 µg/mL | 62.5 to 1000 µg/mL
Cn1cc([N+](=O)[O-])nc1C(=O)NNC(=S)Nc1cccc(Cl)c1 [Compound 4] | 500 to 1000 µg/mL | 62.5 to 1000 µg/mL

System: Candida glabrata ATCC 15126
Test: Broth microdilution, C. glabrata ATCC 15126
Type: cell-based
Conditions: Cg 15126
Summary of the method: as §1

Structure (SMILES) | MIC
Cn1cc([N+](=O)[O-])nc1C(=O)NNC(=S)Nc1ccccc1Cl [Compound 3] | >1000 µg/mL
Cn1cc([N+](=O)[O-])nc1C(=O)NNC(=S)Nc1cccc(Cl)c1 [Compound 4] | >1000 µg/mL

System: Candida lusitaniae ATCC 3449
Test: Broth microdilution, C. lusitaniae ATCC 3449
Type: cell-based
Conditions: Cl 3449
Summary of the method: as §1

Structure (SMILES) | MIC
Cn1cc([N+](=O)[O-])nc1C(=O)NNC(=S)Nc1ccccc1Cl [Compound 3] | >1000 µg/mL
Cn1cc([N+](=O)[O-])nc1C(=O)NNC(=S)Nc1cccc(Cl)c1 [Compound 4] | >1000 µg/mL

System: Micrococcus luteus ATCC 10240
Test: Broth microdilution, M. luteus ATCC 10240
Type: cell-based
Conditions: Ml 10240
Summary of the method: as §2

Structure (SMILES) | MBC | MIC
Cn1cc([N+](=O)[O-])nc1C(=O)NNC(=S)Nc1ccccc1Cl [Compound 3] | 250 µg/mL (≈ 705 µM) | 250 µg/mL (≈ 705 µM)
Cn1cc([N+](=O)[O-])nc1C(=O)NNC(=S)Nc1cccc(Cl)c1 [Compound 4] | 500 µg/mL (≈ 1410 µM) | 125 µg/mL (≈ 352 µM)

Same assay, conditions: Ml 10240; <4 bactericidal, ≥4 bacteriostatic

Structure (SMILES) | MBC/MIC Ratio
Cn1cc([N+](=O)[O-])nc1C(=O)NNC(=S)Nc1ccccc1Cl [Compound 3] | 1
Cn1cc([N+](=O)[O-])nc1C(=O)NNC(=S)Nc1cccc(Cl)c1 [Compound 4] | 4

System: Candida glabrata ATCC 90030
Test: Broth microdilution, C. glabrata ATCC 90030
Type: cell-based
Conditions: Cg 90030
Summary of the method: as §1

Structure (SMILES) | MIC
Cn1cc([N+](=O)[O-])nc1C(=O)NNC(=S)Nc1ccccc1Cl [Compound 3] | >1000 µg/mL
Cn1cc([N+](=O)[O-])nc1C(=O)NNC(=S)Nc1cccc(Cl)c1 [Compound 4] | >1000 µg/mL

System: Bacillus cereus ATCC 10876
Test: Broth microdilution, B. cereus ATCC 10876
Type: cell-based
Conditions: Bc 10876
Summary of the method: as §1

Structure (SMILES) | MBC | MIC
Cn1cc([N+](=O)[O-])nc1C(=O)NNC(=S)Nc1ccccc1Cl [Compound 3] | >1000 µg/mL | 1000 µg/mL (≈ 2820 µM)
Cn1cc([N+](=O)[O-])nc1C(=O)NNC(=S)Nc1cccc(Cl)c1 [Compound 4] | >1000 µg/mL | 250 µg/mL (≈ 705 µM)

System: Staphylococcus aureus ATCC 6538
Test: Broth microdilution, S. aureus ATCC 6538
Type: cell-based
Conditions: Sa 6538
Summary of the method: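 MIC: A570 after 18 ± 2 h, 35 ± 2 °C. Medium: MH broth (bacterium) or MH + 2% glucose (yeasts). Serial 2-fold dilutions of compound, top solution 1000 µg/mL. Inoculum: 0.5 McFarland suspension diluted 10×. MBC/MFC: subculture onto MHA or MHA + 2% glc, 99.9% growth inhibition.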

Structure (SMILES) | MBC | MIC
Cn1cc([N+](=O)[O-])nc1C(=O)NNC(=S)Nc1ccccc1Cl [Compound 3] | >1000 µg/mL | 500 µg/mL (≈ 1410 µM)
Cn1cc([N+](=O)[O-])nc1C(=O)NNC(=S)Nc1cccc(Cl)c1 [Compound 4] | >1000 µg/mL | 250 µg/mL (≈ 705 µM)

System: Bacillus subtilis ATCC 6633
Test: Broth microdilution, B. subtilis ATCC 6633
Type: cell-based
Conditions: Bs 6633
Summary of the method: as §2

Structure (SMILES) | MBC | MIC
Cn1cc([N+](=O)[O-])nc1C(=O)NNC(=S)Nc1ccccc1Cl [Compound 3] | 125 µg/mL (≈ 352 µM) | 125 µg/mL (≈ 352 µM)
Cn1cc([N+](=O)[O-])nc1C(=O)NNC(=S)Nc1cccc(Cl)c1 [Compound 4] | 62.5 µg/mL (≈ 176 µM) | 62.5 µg/mL (≈ 176 µM)

Same assay, conditions: Bs 6633; <4 bactericidal, ≥4 bacteriostatic

Structure (SMILES) | MBC/MIC Ratio
Cn1cc([N+](=O)[O-])nc1C(=O)NNC(=S)Nc1ccccc1Cl [Compound 3] | 1
Cn1cc([N+](=O)[O-])nc1C(=O)NNC(=S)Nc1cccc(Cl)c1 [Compound 4] | 1

System: Candida auris CDC B11903
Test: Broth microdilution, C. auris CDC B11903
Type: cell-based
Conditions: Ca B11903
Summary of the method: as §1

Structure (SMILES) | MIC
Cn1cc([N+](=O)[O-])nc1C(=O)NNC(=S)Nc1ccccc1Cl [Compound 3] | >1000 µg/mL
Cn1cc([N+](=O)[O-])nc1C(=O)NNC(=S)Nc1cccc(Cl)c1 [Compound 4] | >1000 µg/mL

System: Staphylococcus aureus ATCC 43300 methicillin-resistant MRSA
Test: Broth microdilution, S. aureus ATCC 43300 MRSA
Type: cell-based
Conditions: Sa 43300 MRSA
Summary of the method: as §2

Structure (SMILES) | MBC | MIC
Cn1cc([N+](=O)[O-])nc1C(=O)NNC(=S)Nc1ccccc1Cl [Compound 3] | >1000 µg/mL | 1000 µg/mL (≈ 2820 µM)
Cn1cc([N+](=O)[O-])nc1C(=O)NNC(=S)Nc1cccc(Cl)c1 [Compound 4] | >1000 µg/mL | 500 µg/mL (≈ 1410 µM)
